The values that follow come from US9789116B2, “Compositions and methods of modulating short-chain dehydrogenase activity” (CASE WESTERN RESERVE UNIVERSITY, priority 2013, dated 2017).

One data set can be described thus: Hepatocyte stability. In kind it is in vitro ADME. To be noted: hepatocytes in culture; read-out: Hepatocyte stability T½. How it is done: (§1) Time to inhibition refers to the time needed to inhibit the generation of NADH by 15-PGDH from the moment with drug is added into the reaction mix. Delta Tm refers to the shift in melting temperature of recombinant 15-PGDH in the presence of drug (with cofactor NADH also present). Concentration of Full Cell Line Reporter Induction refers to the concentration of drug that needs to be added to reporter cell line to achieve maximal induction of the 15-PGDH-luciferase gene fusion reporter cassette, as measured by luciferase assays. Hepatocyte stability refers to the half-life of compound in the presence of hepatocytes in culture. Toxicity refers to the concentration of compound needed to decrease cell numbers in a cell culture assay.

For another data set, the system named is cell culture. The experiment in a line: Toxicity in a cell culture assay (decrease of cell numbers). Type of data set: cell-based. To be noted: concentration needed to decrease cell numbers in a cell culture assay. How it is done:
as §1

Data set [1] concerns A549 cells. The experiment in a line: Cellular toxicity on A549 cells by CellTiter-Glo. In kind it is cell-based. As to conditions: 24 hours, concentrations of up to 10 μM. The method, then:
FIGS. 38(A-C) show assays of cellular toxicity on A549 cells at 24 hours of 15-PGDH inhibitors as assayed by CellTiter-Glo measurement.

Data set [2] has as its target T1, recombinant 15-PGDH (Homo sapiens (Human), UniProt P15428). Nature of the data set: Inhibition of enzymatic activity of recombinant 15-PGDH in vitro (NADH generation). In kind it is biochemical.
Data set [3] has as its system mouse tissues (colon, bone marrow, liver, lung). The experiment in a line: PGE2 in mouse tissues after IP injection. Type of data set: in vivo. How it is done:
Shown is measurement by Elisa of PGE2 (ng PGE2/mg of tissue protein) from 4 mouse tissues: lung, liver, colon and bone marrow. […] Tissues were harvested for PGE2 assay at either 2 hour (2 h) or 3 hour (3 h) time points following drug injection.

For another data set, the system named is lethally irradiated mice. Nature of the data set: Homing of CFSE dye labeled bone marrow cells in lethally irradiated mice. Type of data set: in vivo, mouse. The method, then:
Drugs are administered following radiation, following the transplant, and again at 8 hours after the transplant.

Data set [4] can be described thus: Chemical stability in aqueous solutions. Type of data set: physicochemical. To be noted: over broad pH range.
A further data set is described as follows: Solubility in water. Type of data set: physicochemical. To be noted: pH=3.
Data set [5] can be described thus: Stability with liver extracts. Type of data set: in vitro ADME. As to conditions: incubated with mouse, rat and human liver extracts.
For the next data set, the system named is mice. Nature of the data set: Immediate toxicity in mice. Type of data set: in vivo. As to conditions: over 24 hours, IP 50 mg/kg body weight.
Data set [6] deals with 15-PGDH-luciferase fusion reporter in V9m, LS174T and V503 cells. Nature of the data set: 15-PGDH-luciferase fusion gene reporter induction in colon cancer cell lines. Type of data set: cell-based. As to conditions: for luciferase activity of 15-PGDH luciferase fusion cells: V9m, LS174T, V503, various concentrations.
The target in data set [7] is T1, recombinant 15-PGDH. The experiment in a line: Melting temperature shift of recombinant 15-PGDH (SYPRO Orange). Type of data set: binding.
In data set [8] the test system is wild-type mouse bone marrow. Nature of the data set: Hematopoietic colonies from bone marrow treated ex vivo. Type of data set: cell-based. To be noted: 1 uM, ex vivo on ice 2 hours; compared with SW033291. An excerpt:
Treated marrow is again then plated into methylcellulose for counting of hematopoietic colonies.

Data set [9] concerns A549 cells. Nature of the data set: PGE2 levels in medium of IL1-beta stimulated A549 cells. Type of data set: cell-based. To be noted: for PGE2 induction compared with SW033291: 4 nM to 2500 nM.
A further data set deals with 15-PGDH mRNA. Nature of the data set: 15-PGDH mRNA levels in colon cancer cell lines by real-time PCR. Type of data set: cell-based. To be noted: treated colon cancer cell lines, real-time PCR. An excerpt: In these studies parental cell lines (not containing the 15-PGDH-luciferase reporter) are employed.

T1 sequence (P15428 whole entry): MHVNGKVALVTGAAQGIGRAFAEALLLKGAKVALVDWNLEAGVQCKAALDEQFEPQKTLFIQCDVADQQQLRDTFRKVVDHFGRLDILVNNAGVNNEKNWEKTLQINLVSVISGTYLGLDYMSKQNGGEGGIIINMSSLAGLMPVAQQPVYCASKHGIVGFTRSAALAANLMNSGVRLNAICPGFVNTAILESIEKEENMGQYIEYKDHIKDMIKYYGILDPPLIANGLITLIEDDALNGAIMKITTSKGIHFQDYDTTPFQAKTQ

On to `CCCC[S+]([O-])c1sc2nc(-c3cccs3)ccc2c1N` (centres unmarked) [SW206980], for which the half-life in the data set “Hepatocyte stability” was 1.33 h. Also, the Toxicity in the data set with cell culture was more than 7.5 µM. In addition, the “effect on CellTitre-Glo levels” value in the data set with A549 cells [1] is “No effect”.
Take `CCCC[S+]([O-])c1sc2nc(-c3nccs3)cc(-c3cnc(C)n3C)c2c1N` (centres unmarked) [formula (XIII)]: at recombinant 15-PGDH [2] (enzyme concentration approximately 6 nM), the “concentration inhibiting recombinant 15-PGDH” value is 3 nM. Further, the “PGE2 levels in colon, lung, liver and bone marrow” value in data set [3] (IP dose of 10 mg/kg body weight) is “elevates PGE2 levels”. Also, the “homing of hematopoietic stem cells following bone marrow transplantation” value with lethally irradiated mice (10 mg/kg body weight) is “increases homing”. Also, in data set [4], the “chemical stability in aqueous solutions” value is “chemically stable”. For the same compound, the solubility in the data set “Solubility in water” turned out to be 1000 µg/mL. In data set [5], the “chemical stability with liver extracts” value was “chemically stable”. Besides, the immediate toxicity result with mice was “no immediate toxicity”.
As to `CCCC[S+]([O-])c1sc2nc(-c3nccs3)ccc2c1N` (centres unmarked) [SW206992], on recombinant 15-PGDH [2] (time needed to inhibit generation of NADH by 15-PGDH after drug is added), the “Time to inhibition (10 nM)” value was approximately 2 min. In addition, in data set [6] (24 hours, three cell line backgrounds), the “exposure needed for maximal reporter induction” value was not below 1000 nM. For the same compound, the “Concentration for Full Cell Line Reporter Induction” value in [6] (maximal induction of 15-PGDH-luciferase reporter) was more than 1 µM. Further, the melting temperature on recombinant 15-PGDH [7] (10 μM protein, 20 uM compound, 100 μM NAD(+), control 49) amounted to 59 degrees. For the same compound, the Toxicity in the data set on cell culture is more than 7.5 µM. Further, the “effect on CellTitre-Glo levels” value in the data set on A549 cells [1] was “No effect”.
As to `CCCCC(C)(C)[C@H](O)/C=C/[C@H]1[C@H](O)CC(=O)[C@@H]1C/C=C\CCCC(=O)O` [dmPGE2, 16,16-dimethyl PGE2], the “increase in number of bone marrow derived colonies” value in [8] is listed as “slightly greater increase”.
In the case of `CCCC[S+]([O-])c1sc2nc(-c3nccs3)cc(-c3nccs3)c2c1N` (centres unmarked) [SW209124, 2-(butylsulfinyl)-4,6-di(thiazol-2-yl)thieno[2,3-b]pyridin-3-amine], the “PGE2 induction compared with SW033291” value with A549 cells [9] is reported as “increased activity relative to SW033291”.
As to `CC(=O)OCCCCS(=O)(=O)c1sc2nc(-c3cccs3)cc(-c3ccccc3)c2c1N` [SW209128, 4-((3-amino-4-phenyl-6-(thiophen-2-yl)thieno[2,3-b]pyridin-2-yl)sulfonyl)butyl acetate], at recombinant 15-PGDH [2] (read-out: Enzyme Inhibitor IC50 (nM) at 5 nM 15-PGDH, 5 nM recombinant human 15-PGDH), the IC50 came out at 4910 nM.
In the case of `COc1ccc2c(c1)c(CC(=O)O)c(C)n2C(=O)c1ccc(Cl)cc1` [indomethacin, reference compound], the “effect of SW033291 on homing in presence of COX inhibitor” value in the data set with lethally irradiated mice (SW033291 10 mg/kg IP plus Indomethacin) is “near completely blocked”.
(+) SW209415: the “time of peak PGE2” value in [3] (IP 0.5, 1.5 or 5 mg/kg) worked out at 3 h. Also, the “induction of PGE2 in lung, liver, colon and bone marrow” value in data set [3] (IP 0.5, 1.5 or 5 mg/kg, 2 h and 3 h) is “induction of PGE2 in all 4 tissues tested”.
As for `CCCCC[C@H](O)/C=C/[C@H]1[C@H](O)CC(=O)[C@@H]1C/C=C\CCCC(=O)O` [PGE2], the “increase in number of bone marrow derived colonies” value in data set [8] is recorded as “lesser increase”.
As to `O=C(c1ccc2nc(-c3ccccc3)c(-c3ccccc3)nc2c1)N1CCCCC1` [SW145753], the “luciferase activity of 15-PGDH luciferase fusion cells” value in [6] is listed as “increase luciferase activity”. In the data set with 15-PGDH mRNA, the “15-PGDH mRNA levels” value is listed as “do not in general alter 15-PGDH mRNA levels”. Besides, the “15-PGDH activity in cells as reflected in PGE2 levels in medium” value in the data set on A549 cells [9] (IL1-beta 23 hours, compound added for the last 5 hours) is recorded as “clear inhibition of 15-PGDH activity in the cells”.
As for `COc1ccc(OC)c(N(CC(=O)Nc2cccnc2)S(=O)(=O)c2ccccc2)c1` [SW054384], the “luciferase activity of 15-PGDH luciferase fusion cells” value in data set [6] was “increase luciferase activity”. Besides, the “15-PGDH mRNA levels” value with 15-PGDH mRNA is reported as “do not in general alter 15-PGDH mRNA levels”. Besides, the “direct binding to 15-PGDH by melting temperature shift” value on recombinant 15-PGDH [7] (10 μM and 100 μM cofactor (NAD, NADH)) was “cannot be demonstrated to bind 15-PGDH”. Also, the “PGE2 level in medium” value in the data set with A549 cells [9] (compound added 24 hours before IL1-beta, maintained next 26 hours) is “lower level of PGE2 produced”.
On to `CCCC[S+]([O-])c1sc2nc(-c3nccs3)cc(-c3nccn3C)c2c1N` (centres unmarked) [SW209125, 2-(butylsulfinyl)-4-(1-methyl-1H-imidazol-2-yl)-6-(thiazol-2-yl)thieno[2,3-b]pyridin-3-amine], for which the “PGE2 induction compared with SW033291” value in the data set on A549 cells [9] is “increased activity relative to SW033291”.
Take `CCCC[S@](C)(O)c1sc2nc(-c3cccs3)cc(-c3ccccc3)c2c1N` [SW033291 isomer B]: at recombinant 15-PGDH [2], the “IC50 lower than parent racemic mixture” value is 40%. Further, the “concentration at which some residual activity is seen” value in data set [6] (V9M, printed 'isomer B', context suggests isomer A) turned out to be 3.2 µM. Further, the “concentration giving full activity in reporter” value in data set [6] (Vaco-9M (V9M)) was 0.1 µM. In addition, the melting temperature at recombinant 15-PGDH [7] (Differential Scanning Fluorimetry, shifted from 50.5° C.) was 68 °C.
